#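 GI50 marks 50% less growth. At the TGI there is no net growth.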
# Experiments:
# Test in all cases: growth of human tumour cells (NCI), 384-well format
# 786-0 renal = test system: 786-0 renal
# A498 renal = test system: A498 renal
# A549 NSCLC = test system: A549 NSCLC
# ACHN renal = test system: ACHN renal
# BT-549 breast = test system: BT-549 breast
# CAKI-1 renal = test system: CAKI-1 renal
# CCRF-CEM leukemia = test system: CCRF-CEM leukemia
# COLO 205 colon = test system: COLO 205 colon
# DU-145 prostate = test system: DU-145 prostate
# EKVX NSCLC = test system: EKVX NSCLC
# HCC-2998 colon = test system: HCC-2998 colon
# HCT-116 colon = test system: HCT-116 colon
# HCT-15 colon = test system: HCT-15 colon
# HL-60(TB) leukemia = test system: HL-60(TB) leukemia
# HOP-62 NSCLC = test system: HOP-62 NSCLC
# HOP-92 NSCLC = test system: HOP-92 NSCLC
# HS 578T breast = test system: HS 578T breast
# HT29 colon = test system: HT29 colon
# IGROV1 ovarian = test system: IGROV1 ovarian
# K-562 leukemia = test system: K-562 leukemia
# KM12 colon = test system: KM12 colon
# LOX IMVI melanoma = test system: LOX IMVI melanoma
# M14 melanoma = test system: M14 melanoma
# MALME-3M melanoma = test system: MALME-3M melanoma
# MCF7 breast = test system: MCF7 breast
# MDA-MB-435 melanoma = test system: MDA-MB-435 melanoma
# MDA-MB-468 breast = test system: MDA-MB-468 breast
# MOLT-4 leukemia = test system: MOLT-4 leukemia
# NCI-H226 lung = test system: NCI-H226 lung
# NCI-H23 lung = test system: NCI-H23 lung
# NCI-H322M lung = test system: NCI-H322M lung
# NCI-H460 NSCLC = test system: NCI-H460 NSCLC
# NCI-H522 lung = test system: NCI-H522 lung
# NCI/ADR-RES ovarian = test system: NCI/ADR-RES ovarian
# OVCAR-3 ovarian = test system: OVCAR-3 ovarian
# OVCAR-4 ovarian = test system: OVCAR-4 ovarian
# OVCAR-8 ovarian = test system: OVCAR-8 ovarian
# PC-3 prostate = test system: PC-3 prostate
# RPMI-8226 leukemia = test system: RPMI-8226 leukemia
# RXF 393 renal = test system: RXF 393 renal
# SF-268 CNS = test system: SF-268 CNS
# SF-295 CNS = test system: SF-295 CNS
# SF-539 CNS = test system: SF-539 CNS
# SK-MEL-2 melanoma = test system: SK-MEL-2 melanoma
# SK-MEL-28 melanoma = test system: SK-MEL-28 melanoma
# SK-MEL-5 melanoma = test system: SK-MEL-5 melanoma
# SK-OV-3 ovarian = test system: SK-OV-3 ovarian
# SN12C renal = test system: SN12C renal
# SNB-19 CNS = test system: SNB-19 CNS
# SNB-75 CNS = test system: SNB-75 CNS
# SW-620 colon = test system: SW-620 colon
# TK-10 renal = test system: TK-10 renal
# U251 glioblastoma = test system: U251 glioblastoma
# UACC-257 melanoma = test system: UACC-257 melanoma
# UACC-62 melanoma = test system: UACC-62 melanoma
structure (smiles),measurement,setting,value
CN(C)C(=O)c1ccc(SC(=S)NCc2ccccc2)cc1,GI50,786-0 renal,1.99 µM
same,TGI,786-0 renal,3.6 µM
same,GI50,A498 renal,3.78 µM
same,TGI,A498 renal,10.3 µM
same,GI50,A549 NSCLC,7.98 µM
same,TGI,A549 NSCLC,21 µM
same,GI50,ACHN renal,3.24 µM
same,TGI,ACHN renal,8.66 µM
same,GI50,BT-549 breast,2.39 µM
same,TGI,BT-549 breast,4.6 µM
same,GI50,CAKI-1 renal,2.92 µM
same,TGI,CAKI-1 renal,9.76 µM
same,GI50,CCRF-CEM leukemia,1.63 µM
same,TGI,CCRF-CEM leukemia,3.05 µM
same,GI50,COLO 205 colon,4.72 µM
same,TGI,COLO 205 colon,15.1 µM
same,GI50,DU-145 prostate,5.09 µM
same,TGI,DU-145 prostate,15 µM
same,GI50,EKVX NSCLC,13.4 µM
same,TGI,EKVX NSCLC,26.3 µM
same,GI50,HCC-2998 colon,4.77 µM
same,TGI,HCC-2998 colon,13.6 µM
same,GI50,HCT-116 colon,3.51 µM
same,TGI,HCT-116 colon,8.81 µM
same,GI50,HCT-15 colon,1.9 µM
same,TGI,HCT-15 colon,3.53 µM
same,GI50,HL-60(TB) leukemia,0.364 µM
same,TGI,HL-60(TB) leukemia,1.15 µM
same,GI50,HOP-62 NSCLC,1.9 µM
same,TGI,HOP-62 NSCLC,3.87 µM
same,GI50,HOP-92 NSCLC,2.72 µM
same,TGI,HOP-92 NSCLC,7.17 µM
same,GI50,HS 578T breast,2.77 µM
same,TGI,HS 578T breast,5.81 µM
same,GI50,HT29 colon,1.8 µM
same,TGI,HT29 colon,3.25 µM
same,GI50,IGROV1 ovarian,2.48 µM
same,TGI,IGROV1 ovarian,6.77 µM
same,GI50,K-562 leukemia,10.6 µM
same,TGI,K-562 leukemia,22.5 µM
same,GI50,KM12 colon,1.67 µM
same,TGI,KM12 colon,8.91 µM
same,GI50,LOX IMVI melanoma,2.07 µM
same,TGI,LOX IMVI melanoma,4.09 µM
same,GI50,M14 melanoma,2.36 µM
same,TGI,M14 melanoma,5.32 µM
same,GI50,MALME-3M melanoma,3.15 µM
same,TGI,MALME-3M melanoma,5.52 µM
same,GI50,MCF7 breast,2.36 µM
same,TGI,MCF7 breast,10.6 µM
same,GI50,MDA-MB-435 melanoma,2.23 µM
same,TGI,MDA-MB-435 melanoma,5.21 µM
same,GI50,MDA-MB-468 breast,0.701 µM
same,TGI,MDA-MB-468 breast,1.33 µM
same,GI50,MOLT-4 leukemia,1.64 µM
same,TGI,MOLT-4 leukemia,3.09 µM
same,GI50,NCI-H226 lung,2.63 µM
same,TGI,NCI-H226 lung,6.33 µM
same,GI50,NCI-H23 lung,3.17 µM
same,TGI,NCI-H23 lung,8.36 µM
same,GI50,NCI-H322M lung,5.05 µM
same,TGI,NCI-H322M lung,15.7 µM
same,GI50,NCI-H460 NSCLC,2.73 µM
same,TGI,NCI-H460 NSCLC,6.45 µM
same,GI50,NCI-H522 lung,3.18 µM
same,TGI,NCI-H522 lung,7.34 µM
same,GI50,NCI/ADR-RES ovarian,2.96 µM
same,TGI,NCI/ADR-RES ovarian,6.23 µM
same,GI50,OVCAR-3 ovarian,3.8 µM
same,TGI,OVCAR-3 ovarian,11.4 µM
same,GI50,OVCAR-4 ovarian,15.7 µM
same,TGI,OVCAR-4 ovarian,29.2 µM
same,GI50,OVCAR-8 ovarian,2.15 µM
same,TGI,OVCAR-8 ovarian,4.31 µM
same,GI50,PC-3 prostate,3.64 µM
same,TGI,PC-3 prostate,9.17 µM
same,GI50,RPMI-8226 leukemia,0.458 µM
same,TGI,RPMI-8226 leukemia,1.22 µM
same,GI50,RXF 393 renal,1.83 µM
same,TGI,RXF 393 renal,3.34 µM
same,GI50,SF-268 CNS,3.83 µM
same,TGI,SF-268 CNS,10.8 µM
same,GI50,SF-295 CNS,12.1 µM
same,TGI,SF-295 CNS,24.6 µM
same,GI50,SF-539 CNS,1.77 µM
same,TGI,SF-539 CNS,3.29 µM
same,GI50,SK-MEL-2 melanoma,1.54 µM
same,TGI,SK-MEL-2 melanoma,2.98 µM
same,GI50,SK-MEL-28 melanoma,2.52 µM
same,TGI,SK-MEL-28 melanoma,4.91 µM
same,GI50,SK-MEL-5 melanoma,1.91 µM
same,TGI,SK-MEL-5 melanoma,3.38 µM
same,GI50,SK-OV-3 ovarian,6.26 µM
same,TGI,SK-OV-3 ovarian,18.1 µM
same,GI50,SN12C renal,2.45 µM
same,TGI,SN12C renal,6.12 µM
same,GI50,SNB-19 CNS,3.37 µM
same,TGI,SNB-19 CNS,9.21 µM
same,GI50,SNB-75 CNS,4.09 µM
same,TGI,SNB-75 CNS,7.63 µM
same,GI50,SW-620 colon,2.87 µM
same,TGI,SW-620 colon,10.1 µM
same,GI50,TK-10 renal,2.87 µM
same,TGI,TK-10 renal,6.13 µM
same,GI50,U251 glioblastoma,3.55 µM
same,TGI,U251 glioblastoma,9.29 µM
same,GI50,UACC-257 melanoma,2.9 µM
same,TGI,UACC-257 melanoma,5.66 µM
same,GI50,UACC-62 melanoma,2.09 µM
same,TGI,UACC-62 melanoma,3.61 µM
